From PubChem BioAssay AID1963865 (Molecular Pharmacology Branch, DTP, NCI, 2024)

System: KRAS PDC multicell spheroid viability
Test: Anticancer human tumor 825966-067-R-J1-PDC patient-derived colon carcinoma cell line growth inhibition [KRAS2]
Conditions: for viability, T/C: stronger effect = lower value
Summary of the method: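 Combination screen of spheroid viability in tumor-cell co-cultures with endothelial (HUVEC) and mesenchymal stem cell stroma. Each agent was tested in half-log dilutions, topping at clinical Cmax or at 10 microM without a known Cmax.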

[1] = curve of first compound, second compound 0.1 µM
[2] = curve of first compound, second compound 0.316 µM
[3] = curve of first compound, second compound 1 µM
[4] = curve of first compound, second compound 3.16 µM
[5] = second compound 0.1 µM, first compound 0.01 µM
[6] = second compound 0.1 µM, first compound 0.0316 µM
[7] = second compound 0.1 µM, first compound 0.1 µM
[8] = second compound 0.1 µM, first compound 0.316 µM
[9] = second compound 0.1 µM, first compound 1 µM
[10] = second compound 0.1 µM, first compound 3.16 µM
[11] = second compound 0.316 µM, first compound 0.01 µM
[12] = second compound 0.316 µM, first compound 0.0316 µM
[13] = second compound 0.316 µM, first compound 0.1 µM
[14] = second compound 0.316 µM, first compound 0.316 µM
[15] = second compound 0.316 µM, first compound 1 µM
[16] = second compound 0.316 µM, first compound 3.16 µM
[17] = second compound 1 µM, first compound 0.01 µM
[18] = second compound 1 µM, first compound 0.0316 µM
[19] = second compound 1 µM, first compound 0.1 µM
[20] = second compound 1 µM, first compound 0.316 µM
[21] = second compound 1 µM, first compound 1 µM
[22] = second compound 1 µM, first compound 3.16 µM
[23] = second compound 3.16 µM, first compound 0.01 µM
[24] = second compound 3.16 µM, first compound 0.0316 µM
[25] = second compound 3.16 µM, first compound 0.1 µM
[26] = second compound 3.16 µM, first compound 0.316 µM
[27] = second compound 3.16 µM, first compound 1 µM
[28] = second compound 3.16 µM, first compound 3.16 µM
[29] = curve of first compound, second compound 10 µM
[30] = second compound 0.1 µM, first compound 10 µM
[31] = second compound 0.316 µM, first compound 10 µM
[32] = second compound 1 µM, first compound 10 µM
[33] = second compound 3.16 µM, first compound 10 µM
[34] = second compound 10 µM, first compound 0.0316 µM
[35] = second compound 10 µM, first compound 0.1 µM
[36] = second compound 10 µM, first compound 0.316 µM
[37] = second compound 10 µM, first compound 1 µM
[38] = second compound 10 µM, first compound 3.16 µM
[39] = second compound 10 µM, first compound 10 µM
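Further: spheroids exposed to compounds for 7 days.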
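Wherever viability, T/C is given: 100% = DMSO vehicle control viability.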

CC1COCCN1c1cc(-c2ccnn2C)c2ccnc(-c3ccn[nH]3)c2n1 (stereo not given) + C=CC(=O)N1CCN(c2nc(OCC3CCCN3C)nc3c2CCN(c2cccc4cccc(C)c24)C3)CC1CC#N
IC50 (curve of first compound, second compound 0.0316 µM): > 3160 nM
IC50 [1]: > 3160 nM
IC50 [2]: 208 nM
IC50 [3]: 89.5 nM
IC50 [4]: 14.5 nM
viability, T/C (second compound 0.0316 µM, first compound 0.01 µM): 118%
viability, T/C (second compound 0.0316 µM, first compound 0.0316 µM): 102%
viability, T/C (second compound 0.0316 µM, first compound 0.1 µM): 69.1%
viability, T/C (second compound 0.0316 µM, first compound 0.316 µM): 56.7%
viability, T/C (second compound 0.0316 µM, first compound 1 µM): 73.8%
viability, T/C (second compound 0.0316 µM, first compound 3.16 µM): 46.4%
viability, T/C [5]: 101%
viability, T/C [6]: 114%
viability, T/C [7]: 63.6%
viability, T/C [8]: 46.8%
viability, T/C [9]: 70.6%
viability, T/C [10]: 49.5%
viability, T/C [11]: 94.5%
viability, T/C [12]: 119%
viability, T/C [13]: 65%
viability, T/C [14]: 41.6%
viability, T/C [15]: 61.1%
viability, T/C [16]: 21.7%
viability, T/C [17]: 120%
viability, T/C [18]: 123%
viability, T/C [19]: 39.6%
viability, T/C [20]: 56.3%
viability, T/C [21]: 39.3%
viability, T/C [22]: 34.4%
viability, T/C [23]: 64.1%
viability, T/C [24]: 20.2%
viability, T/C [25]: 23.1%
viability, T/C [26]: 9.83%
viability, T/C [27]: 15.4%
viability, T/C [28]: 25.3%

COc1cc(Nc2ncc3c(n2)-c2ccc(Cl)cc2C(c2c(F)cccc2OC)=NC3)ccc1C(=O)O
viability, T/C (compound 0.1 µM): 103% [middle of 5 runs]
viability, T/C (compound 1 µM): 114% [middle of 5 runs]
viability, T/C (compound 3.16 µM): 119% [middle of 5 runs]
viability, T/C (compound 10 µM): 132% [middle of 5 runs]
IC50 (curve of compound): > 10000 nM

CC(C)NCC(C(=O)N1CCN(c2ncnc3c2C(C)CC3O)CC1)c1ccc(Cl)cc1 (stereo not given) + CC1OCC2(CCN(c3cnc(Sc4ccnc(N)c4Cl)c(N)n3)CC2)C1N
IC50 [1]: 4490 nM
IC50 [2]: 4130 nM
IC50 [3]: 2550 nM
IC50 [4]: 1420 nM
IC50 [29]: 35.8 nM
viability, T/C [6]: 73.2%
viability, T/C [7]: 97.8%
viability, T/C [8]: 129%
viability, T/C [9]: 87.9%
viability, T/C [10]: 67.5%
viability, T/C [30]: 11.6%
viability, T/C [12]: 86.3%
viability, T/C [13]: 121%
viability, T/C [14]: 145%
viability, T/C [15]: 122%
viability, T/C [16]: 60.6%
viability, T/C [31]: 14.5%
viability, T/C [18]: 92.9%
viability, T/C [19]: 102%
viability, T/C [20]: 133%
viability, T/C [21]: 112%
viability, T/C [22]: 36.2%
viability, T/C [32]: 12.1%
viability, T/C [24]: 102%
viability, T/C [25]: 107%
viability, T/C [26]: 137%
viability, T/C [27]: 67.7%
viability, T/C [28]: 13.4%
viability, T/C [33]: 5.28%
viability, T/C [34]: 53.1%
viability, T/C [35]: 29.5%
viability, T/C [36]: 21.9%
viability, T/C [37]: 6.39%
viability, T/C [38]: 4.52%
viability, T/C [39]: 4.31%

CCN1CCN(Cc2ccc(Nc3ncc(F)c(-c4cc(F)c5nc(C)n(C(C)C)c5c4)n3)nc2)CC1 + CNCc1ccccc1-c1csc(C(C)Nc2nc(C)nc3cc(OC)c(OC)cc23)c1
IC50 [1]: > 1000 nM
IC50 [2]: > 1000 nM
IC50 [3]: 705 nM
IC50 [4]: 68 nM
IC50 [29]: < 3.16 nM
viability, T/C (second compound 0.1 µM, first compound 0.00316 µM): 98.2%
viability, T/C [5]: 99.1%
viability, T/C [6]: 126%
viability, T/C [7]: 137%
viability, T/C [8]: 174%
viability, T/C [9]: 123%
viability, T/C (second compound 0.316 µM, first compound 0.00316 µM): 101%
viability, T/C [11]: 128%
viability, T/C [12]: 115%
viability, T/C [13]: 129%
viability, T/C [14]: 176%
viability, T/C [15]: 78%
viability, T/C (second compound 1 µM, first compound 0.00316 µM): 111%
viability, T/C [17]: 122%
viability, T/C [18]: 154%
viability, T/C [19]: 173%
viability, T/C [20]: 147%
viability, T/C [21]: 10.1%
viability, T/C (second compound 3.16 µM, first compound 0.00316 µM): 110%
viability, T/C [23]: 127%
viability, T/C [24]: 88.5%
viability, T/C [25]: 30.9%
viability, T/C [26]: 0.29%
viability, T/C [27]: 0.27%
viability, T/C (second compound 10 µM, first compound 0.00316 µM): 0.26%
viability, T/C (second compound 10 µM, first compound 0.01 µM): 0.29%
viability, T/C [34]: 0.22%
viability, T/C [35]: 0.18%
viability, T/C [36]: 0.15%
viability, T/C [37]: 0.22%

COc1cc2nccc(Oc3ccc(NC(=O)C4(C(=O)Nc5ccc(F)cc5)CC4)cc3)c2cc1OC + COc1cc2nc(C)nc(NC(C)c3cc(N)cc(C(F)(F)F)c3)c2cc1OC1CCOC1
IC50 [1]: 1560 nM
IC50 [2]: 1460 nM
IC50 [3]: 1630 nM
IC50 [4]: 675 nM
IC50 [29]: < 31.6 nM
viability, T/C [6]: 80.9%
viability, T/C [7]: 87.8%
viability, T/C [8]: 83.9%
viability, T/C [9]: 75.1%
viability, T/C [10]: 9.68%
viability, T/C [30]: 7.53%
viability, T/C [12]: 96.2%
viability, T/C [13]: 81.1%
viability, T/C [14]: 77.5%
viability, T/C [15]: 71.4%
viability, T/C [16]: 6.75%
viability, T/C [31]: 4.21%
viability, T/C [18]: 77.1%
viability, T/C [19]: 98.6%
viability, T/C [20]: 78.5%
viability, T/C [21]: 83.5%
viability, T/C [22]: 4.2%
viability, T/C [32]: 5.34%
viability, T/C [24]: 82.3%
viability, T/C [25]: 80.6%
viability, T/C [26]: 91.9%
viability, T/C [27]: 31.9%
viability, T/C [28]: 2.11%
viability, T/C [33]: 0.21%
viability, T/C [34]: 21%
viability, T/C [35]: 3.18%
viability, T/C [36]: 1.6%
viability, T/C [37]: 1.58%
viability, T/C [38]: 0.32%
viability, T/C [39]: 0.7%
